What was measured:
BAF60A^YLD+SWIB [1] = biological target: T1, BAF60A^YLD+SWIB (Homo sapiens, UniProt Q96GM5); experiment: SPR steady state, amine-coupled protein; assay type: binding
BAF60A^YLD+SWIB [2] = biological target: T1, BAF60A^YLD+SWIB; experiment: fluorescence polarization competition with PU.[…]; assay type: binding

| Kd (BAF60A^YLD+SWIB [1]) | IC50 (BAF60A^YLD+SWIB [2]) | SMILES |
| --- | --- | --- |
| 8.89 µM | 9.13 µM | CC1=C(C(=O)Nc2cccc(C)n2)C(c2cccc(Br)c2)C2=C(CCCC2=O)N1 (stereo not shown) [PPSC-001] |
| 22.6 µM | 33 µM | COC(=O)c1ccc(Cn2c(C)nc3cc4c(cc32)OCCO4)cc1 [PPSC-002] |

From paper doi:10.1101/2025.08.01.667454v3 (biorxiv, 2025)
